Columns and labels:
[1] = Bioavailability and pharmacokinetics of TTI-101 following IP or PO administration; format: in vivo, male Sprague-Dawley rats; details: PO 25 mg/kg vs IP 25.6 mg/kg, single dose, rats
Experimental: Bioavailability and pharmacokinetics of TTI-101 in male Sprague-Dawley rats were evaluated following a single oral (PO) dose at 25 mg/kg (in labrasol:PEG400, 60:40% v/v) and a single intraperitoneal (IP) dose at 25.6 mg/kg (pH 7.4 PBS/propylene glycol/ethanol/DMSO, 20:70:5:5% v/v).

[2] = tested on: subcutaneous liver cancer syngeneic model H22; assay: In vivo efficacy study of TTI-101 ± anti-PD-1 in subcutaneous liver cancer syngeneic model H22; parameters: species or system female BALB/c mice; details: TTI-101 1.2 mg/mouse p.o. BID*3 weeks and/or anti-PD-1 10 mg/kg i.p. BIW*3 weeks
Text: The objective of efficacy study was to evaluate preclinically the in vivo therapeutic efficacy of TTI-101 alone and in combination with anti-PD-1 in the treatment of subcutaneous liver cancer syngeneic model H22 in female BALB/c mice. The objective of rechallenge study was to evaluate immune memory of the female BALB/c mice previously cured from subcutaneous liver cancer syngeneic model H22 by TTI-101 combined with anti-PD-1.
Dosing volume of Anti-PD-1 (clone RMP1-14) was adjusted for body weight. The concentration of anti-PD-1 was 1 mg/mL, and dosing volume was 10 μL/g. The anti-PD-1 dosing solution was prepared by diluting 1.372 mL of anti-PD-1 (8.2 mg/mL) with 9.878 mL of PBS.
A composition of TTI-101 (72 mg/mL) dissolved in Kolliphor RH40, PEG600, Labrasol, Tween 20, and citric acid solution, was then dispersed in 1:2 water (vortexed) to form the dosing emulsion. The concentration of TTI-101 in the dosing emulsion was 24 mg/mL.
The H22 tumor cells were maintained in vitro with RPMI1640 medium supplemented with 10% fetal bovine serum (FBS) at 37° C. in an atmosphere of 5% CO2 in air. The cells in exponential growth phase were harvested and quantitated by cell counter before tumor inoculation.
In efficacy study, each mouse was inoculated subcutaneously in the right front flank region with tumor cells (1×10^6) in 0.1 ml of PBS for tumor development.
The randomization in efficacy study started when the mean tumor size reached approximately 73 mm^3 (for groups 1-5) and 96 mm^3 (for groups 6-9). Totally 82 mice were enrolled in the study and randomly allocated to 9 study groups, with 10 mice per group (groups 1-5) and 8 mice per group (groups 6-9). Randomization was performed based on “Matched distribution” method (Study Director TM software, version 3.1.399.19). The date of randomization was denoted as Day 1.
Test articles were given between 8 am-9 am then again between 4 pm-5 pm.
For group 5, TTI-101 was initiated 5 days post anti-PD-1 dosing per the request.
Tumor volumes were measured twice per week after randomization in two dimensions using a caliper, and the volume was expressed in mm^3 using the formula: V=(L×W×W)/2, where V is tumor volume, L is tumor length (the longest tumor dimension) and W is tumor width (the longest tumor dimension perpendicular to L). Dosing as well as tumor and body weight measurements were conducted in a Laminar Flow Cabinet.
Tumor growth inhibition (TGI), T/C value and Survival was applied at the endpoint.
Tumor regression (REG)=[(T0−Ti)/T0]×100%;
Tumor Growth Inhibition; TGI %=(1−Ti/Ci)*100;
Treatment/Control (T/C) value (%) is an indicator of tumor response to treatment, and one of commonly used anti-tumor activity endpoint; T and C are the mean tumor volumes of the treatment and control groups, respectively, on a given day. […]

[3] = Day 21, vs vehicle+isotype group

greater exposure by oral administration compared to interperitoneal administration [1]: 90%
SMILES: COc1ccc(S(=O)(=O)Nc2cc(-c3c(O)ccc4ccccc34)c(O)c3ccccc23)cc1 [TTI-101, N-(1′,2-dihydroxy-1,2′-binaphthalen-4′-yl)-4-methoxybenzenesulfonamide]
T/C (%) on Day 21 [2, 3]: 78.33% | TGI (%) on Day 21 [2, 3]: 21.67% | CR Ratio (tumor complete response, tumor regressed to 0) ([2]; animals with CR / animals per group): 0/10 | Tumor volume (mm^3) (N) on Day 21 ([2]; mean ± SEM, Day 21): 2073.36 mm^3

— patent US20250170079A1, “COMBINATIONS OF STAT-INHIBITORS AND IMMUNE CHECKPOINT INHIBITORS FOR THE TREATMENT AND/OR MANAGEMENT OF CANCER” (Tvardi Therapeutics, Inc., priority 2022, published 2025)
